Experimental data: PubChem BioAssay AID1013 (Columbia University Molecular Screening Center, 2008)
Active and inactive are the calls of the source. The rule behind the calls is not given here.

assay: blockers of VCAM1 upregulation by TNFa – imaging, TNFa stimulus, retest and dose response, confirmation (AID 1013); conditions: TNFa-stimulated cells, VCAM1 expression imaging; at 2 µM; active compounds read high

| SMILES | inhibition |
| --- | --- |
| Cc1ccc(N/N=C/c2ccc(N3CCOCC3)cc2)cc1C | -4.8% (inactive) |
| CSC1=NCCN1C(=O)Cc1ccc(Cl)cc1 | -11.8% (inactive) |
| Cc1cc(C)n(-c2nc3ccccc3nc2N2CCN(C(=O)c3ccc(Cl)cc3)CC2)n1 | -5.2% (inactive) |
| CCCOC(=O)c1ccc(NC(=O)Oc2ccccc2)cc1 | -2.5% (inactive) |
| COc1ccc(CCN(Cc2cc3cccc(C)c3[nH]c2=O)C(=O)N2CCCC2)cc1OC | 5.6% (inactive) |
| CC(=O)Nc1ccc(S(=O)(=O)n2cnc(C)c2)cc1 | -13.1% (inactive) |
| CN1C(=O)C2(NCCc3c2[nH]c2ccccc32)c2ccccc21 (stereo not drawn) | -19.9% (inactive) |
| CC(=O)c1cccc(S(=O)(=O)N2CCC(n3nnc4cc(F)ccc43)CC2)c1 | 3.2% (inactive) |
| COc1ccc(-c2cc(C(F)(F)F)nc(S(=O)(=O)CCC(=O)N3CCOCC3)n2)cc1 | 20.8% (inactive) |
| CCOC(=O)Cc1cc(-c2ccc(O)cc2)nc2ccc3ccccc3c12 | 35.9% (inactive) |
| O=C(/C(=C/c1ccc(Cl)cc1)c1nc2ccccc2[nH]1)c1cccs1 | 32.1% (inactive) |
| COc1ccc(S(=O)(=O)NC(CC(=O)NCc2ccco2)C(C)C)cc1 (stereo not drawn) | 4.6% (inactive) |
| Cc1ccc(-c2nn(C(C)(C)C)c3ncnc(N)c23)cc1 | -0.9% (inactive) |
| CCOC(=O)c1ccc(N2C(=O)CC(N3CCC(O)(c4ccc(Br)cc4)CC3)C2=O)cc1 (stereo not drawn) | -13.9% (inactive) |
| COC(=O)c1cccc(S(=O)(=O)N(Cc2ccco2)Cc2cc3ccc(OC)cc3[nH]c2=O)c1 | -3.6% (inactive) |
| O=C(Cn1ncc2c(=O)oc3ccccc3c21)NCCC1=CCCCC1 | -1.9% (inactive) |
| COc1ccc(CC(=O)OCc2cc3ccc(C)cc3[nH]c2=O)cc1 | 6.4% (inactive) |
| Cc1cc(N2CCOCC2)c2c(N)c(C)cc(C)c2n1 | -11% (inactive) |
| O=S(=O)(c1ccc2c(c1)OCCCO2)N1CCNCC1 | 0.5% (inactive) |
| COc1cc(CC(=O)Nc2ncc(C)s2)cc(OC)c1OC | -6.6% (inactive) |
| COC(=O)C1C(=O)C2=C(CC1C)NC(=O)CC2c1cccc(C)c1 (stereo not drawn) | -3.9% (inactive) |
| N#Cc1c(NCc2ccccc2)ccnc1NCc1cccnc1 | -17.4% (inactive) |
| OCCNCC(O)Cn1ccc2ccccc21 (stereo not drawn) | -5.6% (inactive) |
| COc1cc2c3c(c1OC)-c1cc(O)ccc1CC3NCC2 (stereo not drawn) | -7.7% (inactive) |
| O=C(CSc1nc2ccccc2s1)NNC(=S)Nc1ccc(Br)cc1 | 1.8% (inactive) |
| CC1=NNC(=O)/C1=C\c1cn(-c2ccccc2)nc1-c1ccc(Cl)cc1 | -15.6% (inactive) |
| O=c1c2ccccc2nnn1CSc1ncnc2ccccc12 | 15.2% (inactive) |

| SMILES | inhibition |
| --- | --- |
| Cc1cccc(NC(=O)CC2SC(=O)N(c3ccccc3)C2=O)c1 (stereo not drawn) | 3.9% (inactive) |
| Cc1nc(NC(C)C)c2oc3ccccc3c2n1 | 18.8% (inactive) |
| O=C1CC(c2cc(Br)ccc2F)c2cc3c(cc2N1)CCC3 (stereo not drawn) | 24.3% (inactive) |
| CCCc1sc(N/N=C/c2ccccn2)nc1-c1ccc(Br)cc1 | 7.8% (inactive) |
| CCN(CC)S(=O)(=O)c1ccc(NC(=O)C(C)N(c2ccc(OC)cc2)S(C)(=O)=O)cc1 (stereo not drawn) | -3.6% (inactive) |
| C=CCn1c(SCC(=O)Nc2ccc(C(=O)OCC)cc2)nnc1-c1sc(N)nc1C | 9.5% (inactive) |
| CCC(C)C1C(C#N)=C(N)Oc2n[nH]c(-c3ccccc3)c21 (stereo not drawn) | -12.6% (inactive) |
| Cc1ccccc1-c1cc(-c2ccccc2O)on1 | 25.2% (inactive) |
| CN(C)c1nc(N(C)C)nc(N(C#N)CCOc2ccccc2)n1 | -3.1% (inactive) |
| CC(C)NC1CS(=O)(=O)CC1O (stereo not drawn) | -13.7% (inactive) |
| O=S(=O)(c1cccs1)N1CCN(CC(O)COc2cccc(Br)c2)CC1 (stereo not drawn) | 4.8% (inactive) |
| O=C(NC(NC1CCS(=O)(=O)C1)C(=O)c1cccs1)c1ccccc1 (stereo not drawn) | 9.9% (inactive) |
| Cc1cc(C)n(-c2nc(-c3cccc(Cl)c3)cs2)n1 | 2.2% (inactive) |
| O=C(N/N=C/c1ccc[nH]1)c1sc2ccccc2c1Cl | 13.1% (inactive) |
| O=C(COC(=O)C1(c2ccccc2F)CCCC1)NC1CCS(=O)(=O)C1 (stereo not drawn) | -6.3% (inactive) |
| O=C1CC(c2ccccc2)Cc2nc3ncnn3cc21 (stereo not drawn) | -11.3% (inactive) |
| CCOc1ccc(C2/C(=C(\O)c3c(C)[nH]c(C(=O)OC)c3C)C(=O)C(=O)N2CCN(C)C)cc1 (stereo not drawn) | -5.6% (inactive) |
| CCCOC(=O)CSC1=C(C#N)C(c2ccccc2OC)C(C#N)C(=O)N1 (stereo not drawn) | -11.7% (inactive) |
| CCCc1nnc(SCC(=O)O)n1/N=C/c1ccc2c(c1)OCO2 | -2% (inactive) |
| CC(Sc1nc(N)cc(=O)[nH]1)C(=O)NC1CCCCC1 (stereo not drawn) | -7.6% (inactive) |
| Cn1c(NC(=O)C2c3ccccc3Oc3ccccc32)cc(=O)n(C)c1=O | -2.7% (inactive) |
| NC(=S)N/N=C/c1ccc(-c2cc(Cl)ccc2Cl)o1 | 34.6% (inactive) |
| O=C(O)c1c[nH]c2ccc(S(=O)(=O)N3CCOCC3)cc12 | 1.4% (inactive) |
| CC/C(=N\NC(=O)CNC(=O)/C=C/c1ccco1)c1ccccc1 | -3.4% (inactive) |
| C/C(Cl)=C\Cn1c(NCCCn2ccnc2)nc2c1c(=O)n(C)c(=O)n2C | 4.7% (inactive) |
| O=C1CC(N2CCN(Cc3ccc4c(c3)OCO4)CC2)C(=O)N1Cc1ccc(N2CCCC2=O)cc1 (stereo not drawn) | -5.2% (inactive) |
